Assay results reported in patent US20100144759A1, “NOVEL N-(FLUORO-PYRAZINYL)-PHENYLSULFONAMIDES AS MODULATORS OF CHEMOKINE RECEPTOR CCR4” (AstraZeneca AB, priority 2005, published 2010).

Assays:
CCR4 [1] = target: T1, CCR4 (Homo sapiens, UniProt P51679); assay: FMAT whole cell binding assay; conditions: CHO-K1 cells expressing human recombinant CCR4; inhibition of FB-MDC binding; read-out: FMAT CCR4 pIC50 (converted)
T1 construct: host or cells: CHO-K1
T1 sequence (P51679 1-360): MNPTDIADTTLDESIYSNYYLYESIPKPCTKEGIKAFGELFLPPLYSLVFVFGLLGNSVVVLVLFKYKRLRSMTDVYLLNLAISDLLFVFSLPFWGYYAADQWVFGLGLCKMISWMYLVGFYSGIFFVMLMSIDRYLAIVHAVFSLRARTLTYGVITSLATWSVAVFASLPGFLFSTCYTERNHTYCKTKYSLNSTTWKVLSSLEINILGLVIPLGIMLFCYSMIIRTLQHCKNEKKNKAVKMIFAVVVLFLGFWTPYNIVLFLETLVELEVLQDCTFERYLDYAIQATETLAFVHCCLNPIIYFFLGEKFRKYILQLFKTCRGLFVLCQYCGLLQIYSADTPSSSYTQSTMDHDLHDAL
Method: CHO-K1 cells stably expressing the human recombinant CCR4 receptor (Euroscreen; Brussels, Belgium) were cultured in NUT.MIX.F—12(HAM) medium with glutamax-1, containing 10% (v/v) foetal bovine serum and 400 μg ml^−1 geneticin.
Cells were harvested at approximately 70% confluence by treatment with a cell dissociation buffer, and seeded at 5×10^3 cells/100 μl culture medium into wells of a black Costar clear-bottomed 96-well microtitre plates. Plates were incubated overnight at 37° C. in 5% CO2 and used the following day.
Before use, the cell plates were washed twice with 100 μl Hanks balanced salt solution (HBSS).
After two hours incubation in the dark at room temperature, the plates were analysed in an FMAT8100 reader (Applied Biosystems) to measure fluorescence that was associated with binding of FB-MDC to the cells.

[2] = Measurement of plasma protein binding (equilibrium dialysis); assay type: in vitro ADME; conditions: pooled human plasma, human plasma vs buffer pH 7.4, 37° C., 10 μM compound, read-out: % Bound Human Plasma (converted)
Method: The extent of plasma protein binding was determined via equilibrium dialysis of a compound between human plasma and aqueous buffer at 37° C. and determination of the concentration of compound in the plasma and buffer by HPLC-MS/MS.
Dialysis cells (molecular weight cut-off 5000) were prepared by rinsing with water followed by soaking in the dialysis buffer for a minimum of 1 hour. The dialysis buffer was isotonic buffered saline pH 7.4. Stock solutions of compound in dimethylsulphoxide were prepared at a concentration of 1 mM. Frozen pooled Human plasma was obtained from volunteers.
The stock DMSO solution of a compound was added to the plasma at a ratio of 10 μl of DMSO to each ml of plasma.
Dialysis cells were then prepared and one half of the cell filled with 750 μl of dialysis buffer and the other half of the cell with 750 μl of plasma solution of compound. Once prepared the cells were sealed and immersed in a water bath at 37° C. These cells were then rotated for a minimum of 4 hours to equilibrate.
After equilibration 500 μl of the buffer samples were removed and added to HPLC vials along with 100 μl of plasma (sample in 6-fold diluted plasma), and 100 μl of the plasma samples were removed and added to HPLC vials along with 500 μl of dialysis buffer (sample in 6-fold diluted plasma).
The samples were then analysed using HPLC-MS/MS.
The concentration of compound in the samples were determined using MassLynx version 4.0 software (produced by Waters/Micromass) that automatically calculated a calibration curve and the concentration of compound in the cells. Plasma protein binding was determined from the calibration curve as the percentage of compound bound in human plasma (% bound) using the following equation wherein the factor in the numerator accounts for the small dilution of the aqueous samples with plasma and the factor of 6 in the denominator serves to correct for the 6-fold dilution of the plasma samples with buffer;

CCR4 [3] = target: T1, CCR4; assay: Predicted whole blood potency; conditions: calculated: CCR4 pIC50+Log((100−% Bound)/100)
Method: Predicted whole blood potency is a measure of the combined effects of CCR4 activity and plasma protein binding, and is calculated by the formula: Whole Blood Potency=CCR4 pIC50+Log((100−% Bound)/100).

[4] = test system: salmonella typhimurium LT2 strains TA98 and TA100; assay: Metabolite testing: mutagenicity (Maron and Ames test); assay type: cell-based; conditions: strains TA98 and TA100, with or without metabolic activation (rat liver S9)
Method: 5-Fluoro-3-methoxy-2-pyrazinamine and 6-fluoro-3-methoxy-2-pyrazinamine were tested for mutagenicity according to the test procedure of Maron and Ames described in Mutation Res. 1983; 113:173-215 using salmonella typhimurium LT2 strains TA98 and TA100. For metabolic activation a homogenate of liver from Aroclor 1254-treated rats (post-mitochondrial fraction (S9) purchased from Molecular Toxicology Inc., Boone, N.C., USA) was added to agar plates (without histidine) together with the test compound and the bacterial tester strains; the complete activation system employed was: phosphate buffer (0.1 mol/L, pH 7.4):100 mmol/L; magnesium chloride: 8 mmol/L; potassium chloride: 33 mmol/L; nicotinamide adenine dinucleotide phosphate: 4 mmol/L; glucose-6-phosphate:5 mmol/L; and rat liver homogenate (S9 fraction):10% v/v. The mean number of revertant colonies and sample standard deviation (from control plates) were calculated for each test group. A test compound was considered to be mutagenic when the following criteria were satisfied: i) the number of revertant colonies in any strain increased in the presence of one or more dose of the test compound, with or without metabolic activation ii) there was a dose-related increase in the number of revertant colonies, and iii) any increase was reproducible.

Row | IC50 (CCR4 [1]) | fraction unbound at 10 µM [2] | Whole Blood Potency (CCR4 [3]) | Structure (SMILES) | mutagenicity test result [4]
1 | 6.31 nM | 0.005 | 5.9 | COc1nc(F)c(CO)nc1NS(=O)(=O)c1cccc(Cl)c1Cl [Example 6, 2,3-Dichloro-N-[5-fluoro-6-(hydroxymethyl)-3-methoxypyrazin-2-yl]-benzenesulfonamide] | 
2 | 3.98 nM | 0.004 | 6.0 | COc1nc(F)cnc1NS(=O)(=O)c1cccc(Cl)c1C [Example 7, 3-Chloro-N-(5-fluoro-3-methoxypyrazin-2-yl)-2-methyl-benzenesulfonamide] | 
3 | 5.01 nM | 0.002 | 5.6 | COc1nc(Br)cnc1NS(=O)(=O)c1cccc(Cl)c1Cl [Ex. 8 WO03/059893, 2,3-dichloro-N-(5-bromo-3-methoxy-2-pyrazinyl)benzenesulphonamide, reference compound] | 
4 |  |  |  | COc1nc(F)cnc1N [5-fluoro-3-methoxy-2-pyrazinamine, 5-Fluoro-3-methoxy-2-pyrazinamine] | negative
5 | 10 nM | 0.011 | 6.0 | COc1nc(F)cnc1NS(=O)(=O)c1cccc(Cl)c1F [Example 5, 3-Chloro-2-fluoro-N-(5-fluoro-3-methoxypyrazin-2-yl)-benzenesulfonamide] | 
6 | 5.01 nM | 0.01 | 6.3 | COc1nc(F)cnc1NS(=O)(=O)c1cccc(F)c1Cl [Example 1, 2-Chloro-3-fluoro-N-(5-fluoro-3-methoxypyrazin-2-yl)-benzenesulfonamide] | 
7 | 3.16 nM | 0.003 | 6.0 | COc1ncc(F)nc1NS(=O)(=O)c1cccc(Cl)c1Cl [Example 3, 2,3-Dichloro-N-(6-fluoro-3-methoxypyrazin-2-yl)-benzenesulfonamide] | 
8 |  |  |  | COc1ncc(F)nc1N [6-fluoro-3-methoxy-2-pyrazinamine] | negative
9 | 15.8 nM | 0.013 | 5.9 | COc1nc(CO)c(F)nc1NS(=O)(=O)c1cccc(Cl)c1Cl [Example 4, 2,3-Dichloro-N-[6-fluoro-5-(hydroxymethyl)-3-methoxypyrazin-2-yl]-benzenesulfonamide] | 

Row | Structure (SMILES) | IC50 (CCR4 [1]) | fraction unbound at 10 µM [2] | Whole Blood Potency (CCR4 [3]) | mutagenicity test result [4]
10 | COc1nccnc1NS(=O)(=O)c1cccc(Cl)c1Cl [Ex. 30 WO03/059893, 2,3-dichloro-N-(3-methoxy-2-pyrazinyl)benzenesulphonamide, reference compound] | 20 nM | 0.011 | 5.7 | 
11 | COc1nc(F)cnc1NS(=O)(=O)c1cccc(Cl)c1Cl [Example 2, 2,3-dichloro-N-(5-fluoro-3-methoxypyrazin-2-yl)-benzenesulfonamide] | 3.16 nM | 0.006 | 6.3 | 
12 | COc1nc(Cl)cnc1NS(=O)(=O)c1cccc(Cl)c1Cl [Ex. 5 WO03/059893, 2,3-dichloro-N-(5-chloro-3-methoxy-2-pyrazinyl)benzenesulphonamide, reference compound] | 12.6 nM | 0.002 | 5.2 | 
